Here are results for 17 compounds from ChEMBL document CHEMBL1131983, “Synthesis of piperazine derivatives and evaluation of their antihistamine and antibradykinin effects” (Bioorg Med Chem Lett, 1999).

Common to all, as to type: tissue-based
Assay [1] deals with Histamine H1 receptor (Cavia porcellus) (UniProt P31389). In words: In vitro inhibitory activity against histamine H1 receptor in guinea-pig ileum at 0.1 uM.
Assay [2] deals with T1, B2 bradykinin receptor (Rattus norvegicus) (UniProt P25023).
T1 sequence (whole entry): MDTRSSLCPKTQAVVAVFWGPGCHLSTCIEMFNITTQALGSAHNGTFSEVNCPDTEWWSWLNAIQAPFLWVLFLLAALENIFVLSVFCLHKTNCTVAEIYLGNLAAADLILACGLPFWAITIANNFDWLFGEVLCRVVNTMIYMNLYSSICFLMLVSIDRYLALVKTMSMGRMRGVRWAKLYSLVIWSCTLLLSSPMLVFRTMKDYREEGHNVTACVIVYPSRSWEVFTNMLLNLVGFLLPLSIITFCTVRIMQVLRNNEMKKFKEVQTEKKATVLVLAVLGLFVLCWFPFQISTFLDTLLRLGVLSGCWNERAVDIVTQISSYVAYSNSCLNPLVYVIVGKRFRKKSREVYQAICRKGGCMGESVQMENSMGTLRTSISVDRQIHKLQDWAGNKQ
In words: In vitro inhibitory activity against Bradykinin receptor B2 in isolated rat ileum at 0.1 uM.

Assay [3] deals with T1, B2 bradykinin receptor (Rattus norvegicus). In words: In vitro inhibitory activity against Bradykinin receptor B2 in isolated rat ileum at 0.1uM; '-' indicates activation.

Histamine H1 receptor (Cavia porcellus), sequence (P31389 whole entry): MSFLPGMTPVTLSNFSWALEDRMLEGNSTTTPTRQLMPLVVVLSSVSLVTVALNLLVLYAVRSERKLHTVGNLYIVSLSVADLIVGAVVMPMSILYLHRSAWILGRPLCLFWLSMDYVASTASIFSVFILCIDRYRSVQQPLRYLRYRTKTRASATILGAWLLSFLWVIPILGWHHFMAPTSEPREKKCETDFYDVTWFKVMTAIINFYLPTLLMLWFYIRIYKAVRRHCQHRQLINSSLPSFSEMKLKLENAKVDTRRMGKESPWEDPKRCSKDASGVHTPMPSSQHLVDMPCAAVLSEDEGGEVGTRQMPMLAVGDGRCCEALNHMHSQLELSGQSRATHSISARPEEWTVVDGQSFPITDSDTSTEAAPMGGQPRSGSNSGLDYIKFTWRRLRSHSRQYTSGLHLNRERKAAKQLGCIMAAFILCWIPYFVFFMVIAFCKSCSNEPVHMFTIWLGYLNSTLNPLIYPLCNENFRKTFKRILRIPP

With `CCC(OCCN1CCN(C(c2ccccc2)c2ccc(Cl)cc2)CC1)C(=O)O` (centres undefined), the inhibition in assay [1] worked out at 10.2%; in assay [2], 12.6%.

Turning to `CC(C)c1ccc(COCCN2CCN(C(c3ccccc3)c3ccc(Cl)cc3)CC2)cc1` (centres undefined), the inhibition came out at 77.5% in assay [1] and 5% in assay [2].

For `COc1cccc(COCCN2CCN(C(c3ccccc3)c3ccc(Cl)cc3)CC2)c1` (centres undefined), the values for the inhibition in assay [3] and in assay [1] were -10% and 33%, respectively.

For `O=C(O)COC(CN1CCN(C(c2ccccc2)c2ccc(Cl)cc2)CC1)c1cccc2ccccc12` (centres undefined), the inhibition turned out to be 57% in assay [1] and 26.6% in assay [2].

As to `O=C(O)Cc1ccc(COCCN2CCN(C(c3ccccc3)c3ccc(Cl)cc3)CC2)cc1` (centres undefined), the inhibition was 28.4% in assay [1] and 36.6% in assay [2].

Consider `Clc1ccc(C(c2ccccc2)N2CCN(CCOCc3ccc4ccccc4c3)CC2)cc1` (centres undefined), for which the inhibition in assay [3] was -9.5%; in assay [1], 10%.

Take `Clc1ccc(C(c2ccccc2)N2CCN(CCCOCc3cccc4ccccc34)CC2)cc1` (centres undefined): the inhibition was found to be 63% in assay [1] and 11.9% in assay [2].

`O=C(O)COCCN1CCN(C(c2ccccc2)c2ccc(Cl)cc2)CC1` (centres undefined): the inhibition came to 50.7% in assay [1] and 27% in assay [2].

Consider `O=C(O)C(OCCN1CCN(C(c2ccccc2)c2ccc(Cl)cc2)CC1)c1ccccc1` (centres undefined), for which the inhibition stood at 43.7% in assay [1] and 9.1% in assay [2].

Regarding `CC(CN1CCN(C(c2ccccc2)c2ccc(Cl)cc2)CC1)(OCC(=O)O)c1ccccc1` (centres undefined), the inhibition in assay [1] is 12.5%; in assay [2] it was 45.6%.

Take `Clc1ccc(C(c2ccccc2)N2CCN(CCOCc3cccc4ccccc34)CC2)cc1` (centres undefined): the inhibition in assay [1] is 20%; in assay [2], 17%.

As for `Clc1ccc(C(c2ccccc2)N2CCN(CCCOCc3ccc4ccccc4c3)CC2)cc1` (centres undefined), the inhibition was determined as 26.4% in assay [1] and 17.7% in assay [2].

Consider `O=C(O)COC(CCN1CCN(C(c2ccccc2)c2ccc(Cl)cc2)CC1)c1ccccc1` (centres undefined), for which the inhibition in assay [1] came to 52.7%; in assay [2] it was 25.4%.

Take `CC(C)(COCC(=O)O)CN1CCN(C(c2ccccc2)c2ccc(Cl)cc2)CC1` (centres undefined): the inhibition in assay [1] came out at 42.9%; in assay [2] it was 33.4%.

Turning to `CC(COCC(=O)O)CN1CCN(C(c2ccccc2)c2ccc(Cl)cc2)CC1` (centres undefined), the inhibition in assay [1] worked out at 14.3%; in assay [2] it was 25%.

As for `COc1ccc(COCCN2CCN(C(c3ccccc3)c3ccc(Cl)cc3)CC2)cc1` (centres undefined), the inhibition was found to be 78.5% in assay [1] and 8.7% in assay [2].

As for `O=C(O)COC(CCc1ccccc1)CN1CCN(C(c2ccccc2)c2ccc(Cl)cc2)CC1` (centres undefined), the inhibition was -3.7% in assay [3] and 11% in assay [1].
